One test has as its system A431 cells. Nature of the test: EGF-induced DMR signal in partially quiescent A431 cells (20 hr in 0.1% fetal bovine serum). Format: cell-based, human. The note with it: partially quiescent A431, 20 hour starvation in 0.1% fetal bovine serum. From the text: EGFR belongs to the family of receptor tyrosine kinases. EGF binds to and stimulates the intrinsic protein-tyrosine kinase activity of EGFR, initiating a signal transduction cascade, principally involving the MAPK, […] and JNK pathways. Upon EGF stimulation, there are many events leading to mass redistribution in A431 cells—a cell line endogenously over-expressing EGFRs. It is known that EGFR signaling depends on cellular status. As a result, the EGF-induced DMR signals are also dependent on the cellular status. In quiescent cells obtained through 20 hr culturing in 0.1% fetal bovine serum, EGF stimulation leads to a DMR signal with three distinct and sequential phases: (i) a positive phase with increased signal (P-DMR), (ii) a transition phase, and (iii) a decay phase (N-DMR). […]
An Epic® cellular assay was conducted on partially quiescent A431 cells obtained through 1 day culture with serum containing medium followed by 20 hour starvation culturing in a medium containing 0.1% fetal bovine serum. […] Chemical biology and cell biology studies have shown that this EGF-induced DMR signal is primarily linked to the Ras/MAPK pathway, which proceeds through MEK and leads to cell detachment (Fang, Y., et al., (2005) “Characteristics of dynamic mass redistribution of EGF receptor signaling in living cells measured with label free optical biosensors”. Anal. Chem., 77, 5720-5725).

The test system of the next test is quiescent A431 cells. Nature of the test: Epic RWG biosensor DMR assay, agonist mode (primary profile), quiescent A431 cells. The class given is cell-based, human. On the procedure: All cell lines were obtained from American Type Cell Culture (Manassas, Va.). The cell culture medium was as follows: Dulbecco's modified Eagle's medium (DMEM) supplemented with 10% fetal bovine serum (FBS), 4.5 g/liter glucose, 2 mM glutamine, and antibiotics for human epidermoid carcinoma A431 and human lung carcinoma A549.
Cells were typically grown using ˜1 to 2×10^4 cells per well at passage 3 to 15 suspended in 50 μl of the corresponding culture medium in the biosensor microplate, and were cultured at 37° C. under air/5% CO2 for ˜1 day. Except for A431, which was subject to ˜20 hr starvation through continuous culture in the serum-free DMEM, the other cell types were directly assayed without starvation. The confluency for all cells at the time of assays was ˜95% to 100%.
Epic® wavelength interrogation system (Corning Inc., Corning, N.Y.) was used for whole cell sensing. This system consists of a temperature-control unit, an optical detection unit, and an on-board liquid handling unit with robotics. The detection unit is centered on integrated fiber optics, and enables kinetic measures of cellular responses with a time interval of ˜15 sec.
The RWG biosensor is capable of detecting minute changes in local index of refraction near the sensor surface. Since the local index of refraction within a cell is a function of density and its distribution of biomass (e.g., proteins, molecular complexes), the biosensor exploits its evanescent wave to non-invasively detect ligand-induced dynamic mass redistribution in native cells. […]
For biosensor cellular assays, molecule solutions were made by diluting the stored concentrated solutions with the HBSS (1× Hanks balanced salt solution, plus 20 mM Hepes, pH 7.1), and transferred into a 384 well polypropylene molecule storage plate to prepare a molecule source plate. […] Both the cell assay plate and the molecule and marker source plate(s) were then incubated in the hotel of the reader system. After ˜1 hr of incubation the baseline wavelengths of all biosensors in the cell assay microplate were recorded and normalized to zero. […]

For the substance epidermal growth factor [EGF], the “DMR signal triggered by EGF” value is “DMR signal with two distinct and sequential phases” in the test with A431 cells; “distinct and robust DMR signal” in the test on quiescent A431 cells (fully quiescent A431 cells, EGF 32 nM, average of 32 replicates). Moreover, in the test on quiescent A431 cells (fully quiescent A431 cells), the “EC80 for triggering the DMR signal” value is given as around 32 nM. Moreover, the “DMR response as a function of EGF dose” value with quiescent A431 cells (quiescent A431 cells, data not shown) is “dose-dependent response”.

The values above are taken from patent US20100130725A1, “METHODS FOR CHARACTERIZING MOLECULES” (priority 2008, published 2010).
